Values quoted from earlier work, collected in US20140194454A1, “COMBINATIONS OF TROSPIUM AND SALIVARY STIMULANTS FOR THE TREATMENT OF OVERACTIVE BLADDER” (TheraVida, Inc., priority 2011, published 2014).

Details: 5 mg of pilocarpine

Compound: CC[C@@H]1C(=O)OC[C@@H]1Cc1cncn1C [pilocarpine]
- time of maximum saliva output after administration: about 30 minutes
